# Experimental data as given in paper PMC3093256, “Synthesis of 1-Substituted Carbazolyl-1,2,3,4-tetrahydro- and Carbazolyl-3,4-dihydro-β-carboline Analogs as Potential Antitumor Agents” (Marine Drugs, 2011).
# What was measured:
# [1] = biological target: T1, human DNA topoisomerase II (Homo sapiens, UniProt P11388); assay: Relaxation assay of topoisomerase II (supercoiled pBR322); assay type: biochemical; settings: for IC50: five concentrations 5, 10, 25, 50 and 100 μg/mL, read-out: Inhibition of DNA topoisomerase II IC50 (converted); for inhibition of DNA topoisomerase II (in words): compared with etoposide; for fold more potent against topoisomerase II compared to etoposide: relative to etoposide
# T1 construct: purchased TopoGen
# T1 sequence (P11388 whole entry): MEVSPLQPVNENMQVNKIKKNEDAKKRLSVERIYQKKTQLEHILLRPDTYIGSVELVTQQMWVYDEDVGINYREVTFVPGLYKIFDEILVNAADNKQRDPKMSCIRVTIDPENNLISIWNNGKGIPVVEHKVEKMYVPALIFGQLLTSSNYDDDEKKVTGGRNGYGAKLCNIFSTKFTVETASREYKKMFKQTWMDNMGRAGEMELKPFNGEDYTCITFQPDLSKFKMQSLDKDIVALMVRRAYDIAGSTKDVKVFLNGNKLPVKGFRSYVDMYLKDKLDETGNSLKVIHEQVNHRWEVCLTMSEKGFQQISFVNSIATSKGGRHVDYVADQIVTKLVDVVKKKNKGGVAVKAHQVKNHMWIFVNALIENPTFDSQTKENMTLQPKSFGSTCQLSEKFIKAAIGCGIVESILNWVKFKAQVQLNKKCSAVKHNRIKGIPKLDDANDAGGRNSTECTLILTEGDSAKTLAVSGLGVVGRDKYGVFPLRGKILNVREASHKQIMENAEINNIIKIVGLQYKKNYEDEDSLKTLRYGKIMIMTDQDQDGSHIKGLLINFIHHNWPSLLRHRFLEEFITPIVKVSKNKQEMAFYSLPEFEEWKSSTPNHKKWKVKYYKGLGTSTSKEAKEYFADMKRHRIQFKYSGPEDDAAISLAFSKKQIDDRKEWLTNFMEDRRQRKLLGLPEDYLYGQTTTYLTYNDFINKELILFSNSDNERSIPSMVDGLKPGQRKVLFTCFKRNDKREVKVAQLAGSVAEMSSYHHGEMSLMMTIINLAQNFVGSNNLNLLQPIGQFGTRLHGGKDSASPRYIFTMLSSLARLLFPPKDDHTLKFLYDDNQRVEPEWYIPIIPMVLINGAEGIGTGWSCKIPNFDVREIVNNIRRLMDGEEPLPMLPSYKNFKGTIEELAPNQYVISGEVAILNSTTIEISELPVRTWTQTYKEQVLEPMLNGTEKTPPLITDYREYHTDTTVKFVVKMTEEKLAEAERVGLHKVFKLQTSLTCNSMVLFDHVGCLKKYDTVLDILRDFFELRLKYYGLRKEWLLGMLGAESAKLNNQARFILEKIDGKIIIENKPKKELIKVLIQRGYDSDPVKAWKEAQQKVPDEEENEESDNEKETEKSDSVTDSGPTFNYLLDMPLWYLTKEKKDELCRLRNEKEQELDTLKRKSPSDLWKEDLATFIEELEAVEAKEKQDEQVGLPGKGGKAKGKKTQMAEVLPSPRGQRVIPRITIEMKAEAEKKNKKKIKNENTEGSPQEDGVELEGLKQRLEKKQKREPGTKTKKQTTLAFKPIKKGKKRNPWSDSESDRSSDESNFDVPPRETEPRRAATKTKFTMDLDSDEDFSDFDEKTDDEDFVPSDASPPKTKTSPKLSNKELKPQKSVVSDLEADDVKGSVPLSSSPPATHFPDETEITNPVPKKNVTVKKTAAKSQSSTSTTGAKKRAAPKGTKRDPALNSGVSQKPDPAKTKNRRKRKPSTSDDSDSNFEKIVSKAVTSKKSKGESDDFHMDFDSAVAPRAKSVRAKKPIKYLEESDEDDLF
# Description: (§1) Topoisomerases I and II (topo I and II) assays were measured by assessing relaxation of supercoiled pBR322 plasmid DNA according to [24]. […] In summary, topo I (TopoGen) was mixed with the test sample and 10° volume of assay buffer (100 mM Tris-HCl, 10 mM EDTA, 1.5 M NACl, 1.0% BSA, […], and 50% glycerol), and then supercoiled DNA (pBR322) was added. In topo II assay, the mixture contained test sample and buffer including 50 mM Tris-HCl, 120 mM KCl, 10 mM MgCl2, 0.5 mM ATP, 0.5 mM dithiothreitol, 2 μg BSA, pBR322 plasmid DNA (0.25 μg), and 3U of topo II (TopoGen) in final volume of 20 μL. After incubation of topo I or topo II mixture for 30 min at 37 °C, 2 λ 10% SDS and 2.5 λ proteinase K were added for 1 h. The reaction mixtures were electrophoresed on a 2% agarose gel (50 V, 20 min; 100 V, 30 min; 110 V, 30 min) and stained with ethidium bromide. Finally, by a densitometer of ImageMaster® (Fujifilm thermal imaging system, FTI-500), the gels were directly scanned and the area representing supercoiled DNA was calculated.
# [2] = biological target: T2, human DNA topoisomerase I (Homo sapiens, UniProt P11387); assay: Relaxation assay of topoisomerase I (supercoiled pBR322); assay type: biochemical; settings: five concentrations 5, 10, 25, 50 and 100 μg/mL; read-out: Inhibition of DNA topoisomerase I IC50 (converted)
# T2 construct: purchased TopoGen
# T2 sequence (P11387 1-765): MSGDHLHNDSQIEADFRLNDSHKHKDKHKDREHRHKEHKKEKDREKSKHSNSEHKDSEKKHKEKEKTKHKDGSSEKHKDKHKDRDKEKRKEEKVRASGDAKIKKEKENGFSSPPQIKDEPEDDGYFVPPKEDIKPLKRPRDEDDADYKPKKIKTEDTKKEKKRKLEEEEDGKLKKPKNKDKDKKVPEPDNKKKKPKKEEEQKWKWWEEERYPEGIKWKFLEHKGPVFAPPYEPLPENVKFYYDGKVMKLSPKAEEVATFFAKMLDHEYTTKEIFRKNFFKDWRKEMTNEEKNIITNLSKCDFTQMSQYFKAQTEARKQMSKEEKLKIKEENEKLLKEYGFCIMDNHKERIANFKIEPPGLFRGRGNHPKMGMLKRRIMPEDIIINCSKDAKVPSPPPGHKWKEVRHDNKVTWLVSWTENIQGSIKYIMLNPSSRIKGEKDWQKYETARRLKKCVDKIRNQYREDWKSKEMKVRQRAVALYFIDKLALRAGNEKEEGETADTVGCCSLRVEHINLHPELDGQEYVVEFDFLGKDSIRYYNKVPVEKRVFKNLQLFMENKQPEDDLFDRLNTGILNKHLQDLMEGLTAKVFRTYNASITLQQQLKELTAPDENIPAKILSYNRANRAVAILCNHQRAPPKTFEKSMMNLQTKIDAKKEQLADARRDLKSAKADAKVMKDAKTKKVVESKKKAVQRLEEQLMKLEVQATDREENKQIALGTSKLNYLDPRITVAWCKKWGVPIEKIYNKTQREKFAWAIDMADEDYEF
# Description: as §1
# [3] = test system: DLD (human colon adenocarcinoma); assay: Cytotoxicity assay, DLD cells; assay type: cell-based; settings: for IC50: Homo sapiens, 72 h, 3 days incubation, by interpolation
# Description: (§2) The cytotoxic activities of compounds against KB (human mouth epidermoid carcinoma), DLD (human colon adenocarcinoma), NCI-H661 (human lung large cell carcinoma), Hepa (human hepatoma), and HepG2/A2 (human hepatoblastoma) cells were assayed by the […] assay as previously described. The cells for assay were cultured in RPMI-1640 medium supplemented with […] in an incubator at 37 °C. The cytotoxicity assay depends on the binding of methylene blue to fixed monolayers of cells at pH 8.5, washing the monolayer, and releasing the dye by lowering the pH value. Samples and control standard drugs were prepared at a concentration of 1, 10, 40, and 100 μg/mL. After seeding 2880 cells/well in a 96-well microplate for 3 h, 20 μL of sample or standard agent was placed in each well and incubated at 37 °C for 3 days. After removing the medium from the microplates, the cells were fixed with 10% formaldehyde in 0.9% saline for 30 min, then dyed with 1% (w/v) methylene blue in 0.01 M borate-buffer (100 μL/well) for 30 min. The 96-well plate was dipped into a 0.01 M borate-buffer solution four times in order to remove the dye. Then, 100 μL/well of EtOH-0.1 M HCl (1:1) was added as a dye eluting solvent, and the absorbance was measured on a microtiter plate reader (Dynatech, MR 7000) at a wavelength of 650 nm. […] Doxorubicin was used as a standard compound.
# [4] = test system: NCI-H661 (human lung large cell carcinoma); assay: Cytotoxicity assay, NCI-H661 cells; assay type: cell-based; settings: 72 h, 3 days incubation, by interpolation
# Description: as §2
# [5] = test system: KB (human mouth epidermoid carcinoma); assay: Cytotoxicity assay, KB cells; assay type: cell-based; settings: 72 h, 3 days incubation, by interpolation
# Description: as §2
# [6] = test system: HepG2/A2 (human hepatoma); assay: Cytotoxicity assay, HepG2/A2 cells; assay type: cell-based; settings: for IC50: Homo sapiens, 72 h, HepG2/A2 cells, 3 days incubation, by interpolation
# Description: as §2
# Hepa (human hepatoma) = assay: Cytotoxicity assay, Hepa cells; assay type: cell-based; settings: 72 h, 3 days incubation, by interpolation
# Description: as §2
Structure (SMILES),IC50 [1] [µM],IC50 [2] [µM],melting point [°C],inhibition of DNA topoisomerase II (in words) [1],fold more potent against topoisomerase II compared to etoposide [1],IC50 [3] [µg/mL],IC50 [4] [µg/mL],IC50 [5] [µg/mL],IC50 [6] [µg/mL],IC50 (Hepa (human hepatoma)) [µg/mL],cytotoxicity against HepG2/A2 (in words) ([6]; HepG2/A2 tumor cells),activity in DLD assay (in words) [3]
"CCn1c2ccccc2c2cc(C3NCCc4c3[nH]c3ccccc43)ccc21 (stereo not drawn) [Compound 1, 1-(9′-Ethyl-3′-carbazolyl)-1,2,3,4-tetrahydro-β-carboline]",26,> 274,240 to 242,–,–,1.69,1.82,3.47,–,–,–,–
"CCCn1c2ccccc2c2cc(C3NCCc4c3[nH]c3ccccc43)ccc21 (stereo not drawn) [Compound 3, 1-(9′-Propyl-3′-carbazolyl)-1,2,3,4-tetrahydro-β-carboline]",4.22,124,110 to 112,most potent,10- to 15 fold,1.58,2.14,1.84,6.1,–,–,–
"CCC(C)n1c2ccccc2c2cc(C3NCCc4c3[nH]c3ccccc43)ccc21 (stereo not drawn) [Compound 5, 1-(9′-[1″-Methyl]propyl-3′-carbazolyl)-1,2,3,4-tetrahydro-β-carboline]",25.4,> 254,127 to 130,–,–,–,–,3,–,2.25,–,–
"CCC(C)n1c2ccccc2c2cc(C3=NCCc4c3[nH]c3ccccc43)ccc21 (stereo not drawn) [Compound 6, 1-(9′-[1″-Methyl]propyl-3′-carbazolyl)-3,4-dihydro-β-carboline]",66.4,> 255,151 to 154,–,–,–,–,0.48,–,2.67,–,–
"CCCCCn1c2ccccc2c2cc(C3NCCc4c3[nH]c3ccccc43)ccc21 (stereo not drawn) [Compound 7, 1-(9′-Pentyl-3′-carbazolyl)-1,2,3,4-tetrahydro-β-carboline]",6.62,218,129 to 130,most potent,–,3.75,0.22,3.45,20.5,–,–,–
"CC(C)CCn1c2ccccc2c2cc(C3NCCc4c3[nH]c3ccccc43)ccc21 (stereo not drawn) [Compound 9, 1-(9′-[3″-Methylbutyl]-3′-carbazolyl)-1,2,3,4-tetrahydro-β-carboline]",6.87,236,99 to 101,most potent,10- to 15 fold,–,–,2.96,–,1.12,–,–
"CCCCCCCCn1c2ccccc2c2cc(C3NCCc4c3[nH]c3ccccc43)ccc21 (stereo not drawn) [Compound 11, 1-(9′-Octyl-3′-carbazolyl)-1,2,3,4-tetrahydro-β-carboline]",66.7,> 222,87 to 89,–,–,1.57,> 20,> 20,20.7,–,–,active
"CCCCCCCCCCn1c2ccccc2c2cc(C3NCCc4c3[nH]c3ccccc43)ccc21 (stereo not drawn) [Compound 13, 1-(9′-Decyl-3′-carbazolyl)-1,2,3,4-tetrahydro-β-carboline]",58.6,> 209,102 to 104,–,–,10.4,13.9,6.36,> 60,–,–,–

# Second part, led by results:
IC50 [1] [µM],IC50 [2] [µM],melting point [°C],inhibition of DNA topoisomerase II (in words) [1],fold more potent against topoisomerase II compared to etoposide [1],Structure (SMILES),IC50 [3] [µg/mL],IC50 [4] [µg/mL],IC50 [5] [µg/mL],IC50 [6] [µg/mL],IC50 (Hepa (human hepatoma)) [µg/mL],cytotoxicity against HepG2/A2 (in words) ([6]; HepG2/A2 tumor cells),activity in DLD assay (in words) [3]
23.4,> 275,175 to 177,–,–,"CCn1c2ccccc2c2cc(C3=NCCc4c3[nH]c3ccccc43)ccc21 [Compound 2, 1-(9′-Ethyl-3′-carbazolyl)-3,4-dihydro-β-carboline]",1.09,0.84,0.71,0.6,–,–,–
5.56,> 265,126 to 128,most potent,10- to 15 fold,"CCCn1c2ccccc2c2cc(C3=NCCc4c3[nH]c3ccccc43)ccc21 [Compound 4, 1-(9′-Propyl-3′-carbazolyl)-3,4-dihydro-β-carboline]",2.16,5.02,2.72,5.1,–,–,–
54.2,143,97 to 98,–,–,"CCCCCn1c2ccccc2c2cc(C3=NCCc4c3[nH]c3ccccc43)ccc21 [Compound 8, 1-(9′-Pentyl-3′-carbazolyl)-3,4-dihydro-β-carboline]",1.29,3.39,> 20,5.4,–,active,–
6.66,165,135 to 137,most potent,10- to 15 fold,"CC(C)CCn1c2ccccc2c2cc(C3=NCCc4c3[nH]c3ccccc43)ccc21 [Compound 10, 1-(9′-[3″-Methylbutyl]-3′-carbazolyl)-3,4-dihydro-β-carboline]",–,–,3.13,–,4.4,–,–
64.8,> 223,91 to 92,–,–,"CCCCCCCCn1c2ccccc2c2cc(C3=NCCc4c3[nH]c3ccccc43)ccc21 [Compound 12, 1-(9′-Octyl-3′-carbazolyl)-3,4-dihydro-β-carboline]",2.55,5.28,9.13,30.1,–,–,–
